Laboratory results reported in patent US11304949B2, “Treatment of hidradenitis suppurativa using JAK inhibitors” (Incyte Corporation, priority 2018, dated 2022).
pIC50: −log10 of the molar value.

What was measured:
[1] = tested on: human JAK1 (a.a. 837-1142); assay: In vitro JAK kinase assay (HTRF), JAK1; format: biochemical; details: IC50 ratio at 1 mM ATP
[2] = target: human JAK1 (a.a. 837-1142) (Homo sapiens, UniProt P23458); assay: In vitro JAK kinase assay (HTRF), JAK1; format: biochemical; details: 1 mM ATP
[3] = tested on: Transformed human keratinocyte (HaCaT) cells stimulated with TNFα and IFNγ; assay: JAK inhibitors in TNFα/IFNγ stimulated keratinocytes, inflammatory mediators in media (ProCarta Multiplex Immunoassay); details: mean ± 1 standard error
[4] = tested on: Transformed human keratinocyte (HaCaT) cells stimulated with TNFα and IFNγ; assay: JAK inhibitors in TNFα/IFNγ stimulated keratinocytes, gene expression (QuantiGene Plex); details: 24 hours, normalized to HPRT1, mean ± standard error
[5] = TNFα (25 ng/mL) and IFNγ (25 ng/mL) stimulation, drug 25 nM
[6] = TNFα (25 ng/mL) and IFNγ (25 ng/mL) stimulation, drug 50 nM
[7] = TNFα (25 ng/mL) and IFNγ (25 ng/mL) stimulation, drug 100 nM
[8] = TNFα (25 ng/mL) and IFNγ (25 ng/mL) stimulation, drug 200 nM
[9] = TNFα (25 ng/mL) and IFNγ (25 ng/mL), drug 25 nM
[10] = TNFα (25 ng/mL) and IFNγ (25 ng/mL), drug 50 nM
[11] = TNFα (25 ng/mL) and IFNγ (25 ng/mL), drug 100 nM
[12] = TNFα (25 ng/mL) and IFNγ (25 ng/mL), drug 200 nM

SMILES: C[C@H](NC(=O)c1cc(F)c(N2CC(CC#N)(n3cc(-c4ncnc5[nH]ccc45)cn3)C2)cc1F)C(F)(F)F [Compound 16, 4-{3-(cyanomethyl)-3-[4-(7H-pyrrolo[2,3-d]pyrimidin-4-yl)-1H-pyrazol-1-yl]azetidin-1-yl}-2,5-difluoro-N-[(1S)-2,2,2-trifluoro-1-methylethyl]benzamide]
- JAK2/JAK1 [1]: >10
- pIC50 [2]: > 8.00

SMILES: C[C@@H](CO)NCc1cc(OC2CCN([C@H]3C[C@](CC#N)(n4cc(-c5ncnc6[nH]ccc56)cn4)C3)CC2)nc(C(F)(F)F)c1 [Compound 23, {trans-3-(4-{[4-({[(1S)-2-hydroxy-1-methylethyl]amino}methyl)-6-(trifluoromethyl)pyridin-2-yl]oxy}piperidin-1-yl)-1-[4-(7H-pyrrolo[2,3-d]pyrimidin-4-yl)-1H-pyrazol-1-yl]cyclobutyl}acetonitrile]
- JAK2/JAK1 [1]: >10
- pIC50 [2]: > 8.00

SMILES: C[C@H](O)CNCc1cc(OC2CCN([C@H]3C[C@](CC#N)(n4cc(-c5ncnc6[nH]ccc56)cn4)C3)CC2)nc(C(F)(F)F)c1 [Compound 25, {trans-3-(4-{[4-({[(2S)-2-hydroxypropyl]amino}methyl)-6-(trifluoromethyl)pyridin-2-yl]oxy}piperidin-1-yl)-1-[4-(7H-pyrrolo[2,3-d]pyrimidin-4-yl)-1H-pyrazol-1-yl]cyclobutyl}acetonitrile]
- JAK2/JAK1 [1]: >10
- pIC50 [2]: > 8.00

SMILES: CC(C)(O)c1cc(O[C@H]2CC[C@@H](N3CC(CC#N)(n4cc(-c5ncnc6[nH]ccc56)cn4)C3)CC2)nc(C(F)(F)F)c1 [Compound 20, {1-(cis-4-{[4-(1-hydroxy-1-methylethyl)-6-(trifluoromethyl)pyridin-2-yl]oxy}cyclohexyl)-3-[4-(7H-pyrrolo[2,3-d]pyrimidin-4-yl)-1H-pyrazol-1-yl]azetidin-3-yl}acetonitrile]
- JAK2/JAK1 [1]: >10
- pIC50 [2]: > 8.00

SMILES: CCNCc1cc(O[C@H]2CC[C@@H](N3CC(CC#N)(n4cc(-c5ncnc6[nH]ccc56)cn4)C3)CC2)nc(C(F)(F)F)c1 [Compound 19, {1-(cis-4-{[4-[(ethylamino)methyl]-6-(trifluoromethyl)pyridin-2-yl]oxy}cyclohexyl)-3-[4-(7H-pyrrolo[2,3-d]pyrimidin-4-yl)-1H-pyrazol-1-yl]azetidin-3-yl}acetonitrile]
- JAK2/JAK1 [1]: >10
- pIC50 [2]: > 8.00

SMILES: N#CCC(CN1CCN(C(=O)c2ccc(C#N)cc2F)CC1)n1ccc(-c2ncnc3[nH]ccc23)c1 (centres unmarked) [Compound 9, 4-[(4-{3-cyano-2-[3-(7H-pyrrolo[2,3-d]pyrimidin-4-yl)-1H-pyrrol-1-yl]propyl}piperazin-1-yl)carbonyl]-3-fluorobenzonitrile]
- JAK2/JAK1 [1]: >10
- pIC50 [2]: > 8.00

SMILES: N#CC[C@]1(n2cc(-c3ncnc4[nH]ccc34)cn2)C[C@H](N2CCC(Oc3cc(CN4CC(O)C4)cc(C(F)(F)F)n3)CC2)C1 [Compound 11, {trans-3-(4-{[4-[(3-hydroxyazetidin-1-yl)methyl]-6-(trifluoromethyl)pyridin-2-yl]oxy}piperidin-1-yl)-1-[4-(7H-pyrrolo[2,3-d]pyrimidin-4-yl)-1H-pyrazol-1-yl]cyclobutyl}acetonitrile]
- JAK2/JAK1 [1]: >10
- pIC50 [2]: > 8.00

SMILES: N#CC[C@]1(n2cc(-c3ncnc4[nH]ccc34)cn2)C[C@H](N2CCN(C(=O)c3ccnc(C(F)(F)F)n3)CC2)C1 [Compound 10, [trans-1-[4-(7H-pyrrolo[2,3-d]pyrimidin-4-yl)-1H-pyrazol-1-yl]-3-(4-{[2-(trifluoromethyl)pyrimidin-4-yl]carbonyl}piperazin-1-yl)cyclobutyl]acetonitrile]
- JAK2/JAK1 [1]: >10
- pIC50 [2]: > 8.00

SMILES: N#CCC1(n2cc(-c3ncnc4[nH]ccc34)cn2)CN([C@H]2CC[C@@H](Oc3cc(CN4CC[C@H](O)C4)cc(C(F)(F)F)n3)CC2)C1 [Compound 22, {1-(cis-4-{[4-{[(3S)-3-hydroxypyrrolidin-1-yl]methyl}-6-(trifluoromethyl)pyridin-2-yl]oxy}cyclohexyl)-3-[4-(7H-pyrrolo[2,3-d]pyrimidin-4-yl)-1H-pyrazol-1-yl]azetidin-3-yl}acetonitrile]
- JAK2/JAK1 [1]: >10
- pIC50 [2]: > 8.00

SMILES: N#CCC(C1CCN(c2nc3cccnc3o2)C1)n1cc(-c2ncnc3[nH]ccc23)cn1 (centres unmarked) [Compound 7, 3-(1-[1,3]oxazolo[5,4-b]pyridin-2-ylpyrrolidin-3-yl)-3-[4-(7H-pyrrolo[2,3-d]pyrimidin-4-yl)-1H-pyrazol-1-yl]propanenitrile]
- JAK2/JAK1 [1]: >10
- pIC50 [2]: > 8.00

SMILES: N#CCC1(n2cc(-c3ncnc4[nH]ccc34)cn2)CN(C2CCN(C(=O)Nc3ccc(F)cc3C(F)(F)F)CC2)C1 [Compound 2, 4-{3-(Cyanomethyl)-3-[4-(7H-pyrrolo[2,3-d]pyrimidin-4-yl)-1H-pyrazol-1-yl]azetidin-1-yl}-N-[4-fluoro-2-(trifluoromethyl)phenyl]piperidine-1-carboxamide]
- JAK2/JAK1 [1]: >10
- pIC50 [2]: > 8.00

SMILES: N#CCC1(n2cc(-c3ncnc4[nH]ccc34)cn2)CN([C@H]2CC[C@@H](Oc3cc(CN4CC[C@@H](O)C4)cc(C(F)(F)F)n3)CC2)C1 [Compound 21, {1-(cis-4-{[4-{[(3R)-3-hydroxypyrrolidin-1-yl]methyl}-6-(trifluoromethyl)pyridin-2-yl]oxy}cyclohexyl)-3-[4-(7H-pyrrolo[2,3-d]pyrimidin-4-yl)-1H-pyrazol-1-yl]azetidin-3-yl}acetonitrile]
- JAK2/JAK1 [1]: >10
- pIC50 [2]: > 8.00

SMILES: Cc1n[nH]c(C)c1-c1cnn(C2(CC#N)CN(c3cc(F)c(C(=O)N[C@@H](C)C(F)(F)F)cc3F)C2)c1 [Compound 4]
- IL-1α concentration in media [3, 5]: 7.74 ± 0.36 pg/mL
- IL-6 concentration in media [3, 5]: 774.87 ± 31.09 pg/mL
- IP-10/CXCL10 concentration in media [3, 5]: 3999.39 ± 370.53 pg/mL
- MIP1α concentration in media [3, 5]: 101.71 ± 3.84 pg/mL
- RANTES concentration in media [3, 5]: 216.88 ± 13.45 pg/mL
- IL-1α concentration in media [3, 6]: 7.01 ± 0.39 pg/mL
- IL-6 concentration in media [3, 6]: 710.89 ± 36.7 pg/mL
- IP-10/CXCL10 concentration in media [3, 6]: 3665.2 ± 277.11 pg/mL
- MIP1α concentration in media [3, 6]: 104.54 ± 6.56 pg/mL
- RANTES concentration in media [3, 6]: 201.93 ± 15.44 pg/mL
- IL-1α concentration in media [3, 7]: 7.27 ± 0.47 pg/mL
- IL-6 concentration in media [3, 7]: 690.4 ± 35.25 pg/mL
- IP-10/CXCL10 concentration in media [3, 7]: 3860.41 ± 323.05 pg/mL
- MIP1α concentration in media [3, 7]: 96.4 ± 4.18 pg/mL
- RANTES concentration in media [3, 7]: 207.79 ± 17.38 pg/mL
- IL-1α concentration in media [3, 8]: 6.45 ± 0.38 pg/mL
- IL-6 concentration in media [3, 8]: 621.79 ± 33.44 pg/mL
- IP-10/CXCL10 concentration in media [3, 8]: 3835.78 ± 304.58 pg/mL
- MIP1α concentration in media [3, 8]: 98.72 ± 3.87 pg/mL
- RANTES concentration in media [3, 8]: 189.62 ± 13.78 pg/mL
- IL-1α concentration in media ([3]; no stimulation, drug 200 nM): 0.30 ± 0.05 pg/mL
- IL-6 concentration in media ([3]; no stimulation, drug 200 nM): 28.79 ± 2.91 pg/mL
- IP-10/CXCL10 concentration in media ([3]; no stimulation, drug 200 nM): 20.23 ± 0.48 pg/mL
- MIP1α concentration in media ([3]; no stimulation, drug 200 nM): 2.90 ± 0.21 pg/mL
- RANTES concentration in media ([3]; no stimulation, drug 200 nM): 8.61 ± 0.52 pg/mL
- IL-1α MFI [4, 9]: 1370.52 ± 35.28
- IL-6 MFI [4, 9]: 135.32 ± 3.36
- JAK1 MFI [4, 9]: 206.29 ± 6.84
- JAK2 MFI [4, 9]: 114.94 ± 2.16
- JAK3 MFI [4, 9]: 1.02 ± 0.19
- STAT1 MFI [4, 9]: 3111.17 ± 182.20
- STAT3 MFI [4, 9]: 1557.84 ± 58.15
- STAT4 MFI [4, 9]: 5.65 ± 0.44
- STAT5A MFI [4, 9]: 22.82 ± 1.77
- STAT6 MFI [4, 9]: 1020.89 ± 23.57
- TYK2 MFI [4, 9]: 283.97 ± 8.59
- IL-1α MFI [4, 10]: 1308.7 ± 45.12
- IL-6 MFI [4, 10]: 128.14 ± 6.83
- JAK1 MFI [4, 10]: 194.2 ± 8.24
- JAK2 MFI [4, 10]: 107.16 ± 2.86
- JAK3 MFI [4, 10]: 0.99 ± 0.16
- STAT1 MFI [4, 10]: 3058.64 ± 154.86
- STAT3 MFI [4, 10]: 1519.61 ± 69.92
- STAT4 MFI [4, 10]: 5.41 ± 0.33
- STAT5A MFI [4, 10]: 20.71 ± 1.77
- STAT6 MFI [4, 10]: 982.62 ± 14.34
- TYK2 MFI [4, 10]: 273.68 ± 7.44
- IL-1α MFI [4, 11]: 1194.29 ± 12.27
- IL-6 MFI [4, 11]: 112.13 ± 3.37
- JAK1 MFI [4, 11]: 193.28 ± 4.55
- JAK2 MFI [4, 11]: 95.51 ± 3.13
- JAK3 MFI [4, 11]: 0.99 ± 0.15
- STAT1 MFI [4, 11]: 3035.33 ± 122.14
- STAT3 MFI [4, 11]: 1457.24 ± 54.48
- STAT4 MFI [4, 11]: 5.32 ± 0.46
- STAT5A MFI [4, 11]: 18.44 ± 1.85
- STAT6 MFI [4, 11]: 943.66 ± 25.99
- TYK2 MFI [4, 11]: 266 ± 6.82
- IL-1α MFI [4, 12]: 1151.31 ± 20.01
- IL-6 MFI [4, 12]: 101.17 ± 2.91
- JAK1 MFI [4, 12]: 182.86 ± 4.07
- JAK2 MFI [4, 12]: 91.17 ± 2.15
- JAK3 MFI [4, 12]: 0.85 ± 0.15
- STAT1 MFI [4, 12]: 2984.14 ± 163.4
- STAT3 MFI [4, 12]: 1483.1 ± 51.73
- STAT4 MFI [4, 12]: 5.04 ± 0.36
- STAT5A MFI [4, 12]: 17.64 ± 1.46
- STAT6 MFI [4, 12]: 966.51 ± 12.3
- TYK2 MFI [4, 12]: 263.49 ± 5.05
- IL-1α MFI ([4]; no stimulation, drug 200 nM): 88.72 ± 5.90
- IL-6 MFI ([4]; no stimulation, drug 200 nM): 4.98 ± 0.28
- JAK1 MFI ([4]; no stimulation, drug 200 nM): 177.67 ± 11.84
- JAK2 MFI ([4]; no stimulation, drug 200 nM): 25.25 ± 1.04
- JAK3 MFI ([4]; no stimulation, drug 200 nM): 0.68 ± 0.17
- STAT1 MFI ([4]; no stimulation, drug 200 nM): 554.39 ± 11.80
- STAT3 MFI ([4]; no stimulation, drug 200 nM): 746.17 ± 16.73
- STAT4 MFI ([4]; no stimulation, drug 200 nM): 4.28 ± 0.61
- STAT5A MFI ([4]; no stimulation, drug 200 nM): 1.75 ± 0.44
- STAT6 MFI ([4]; no stimulation, drug 200 nM): 762.04 ± 9.44
- TYK2 MFI ([4]; no stimulation, drug 200 nM): 217.28 ± 14.28
